In publication PMC9455805, “Preparation, Characterization and In Vitro Stability of a Novel ACE-Inhibitory Peptide from Soybean Protein” (Foods, 2022):
Entries after “also recorded” stand apart in the source; their conditions may differ. Where two headings read alike, the source gives them in different places. Peptide text beside a SMILES is read from it.

Columns and labels:
pepsin and pancreatin = assay: In vitro simulated gastrointestinal digestion, then ACE-inhibitory activity assay and ESI-MS; type: in vitro ADME
Method: Pepsin (1 mg) was added, and the mixture was stirred at 37 °C for 2 h. Then, the pH was adjusted to 6 with 0.9 M NaHCO3, and afterwards to 7.5 with 1 M NaOH. Pancreatin (1 mg) was added, and the solution was incubated at 37 °C for 4 h.

ACE = test system: ACE; set-up: method as in 5 sources, ref 34 = [34]; PMID 12843654; doi:10.1271/bbb.67.1278; 34. Kuba M. Tanaka K. Tawata S. Takeda Y. Yasuda M. Angiotensin I-converting enzyme inhibitory peptides isolated from tofuyo fermented soybean food Biosci. Biotechnol. Biochem. 2003 67 1278 1283 10.12 ||| ref 33 = [33]; PMID 25410725; doi:10.1002/bab.1321; 33. Sornwatana T. Bangphoomi K. Roytrakul S. Wetprasit N. Choowongkomon K. Ratanapo S. Chebulin: Terminalia chebula Retz. fruit-derived peptide with angiotensin-I–converting enzyme inhibitory activity ||| ref 35 = [35]; doi:10.1016/j.foodchem.2010.05.026; 35. Jiang Z. Tian B. Brodcrob A. Huo G. Production, analysis and in vivo evaluation of novel angiotensin-I-converting enzyme inhibitory peptides from bovine casein Food Chem. 2010 123 779 786 10.1016/ ||| ref 7 = [7]; doi:10.1016/j.foodchem.2009.04.086; 7. Lee S.H. Qian Z.J. Kim S.K. A novel angiotensin I converting enzyme inhibitory peptide from tuna frame protein hydrolysate and its antihypertensive effect in spontaneously hypertensive rats Food Ch ||| ref 36 = [36]; PMID 23140680; doi:10.1016/j.foodchem.2011.01.010; 36. Jang J.H. Jeong S.C. Kim J.H. Lee Y.H. Ju Y.C. Lee J.S. Characterisation of a new antihypertensive angiotensin I-converting enzyme inhibitory peptide from Pleurotus cornucopiae Food Chem. 2011 127; conditions: cited from earlier work; for IC50: read-out: IC50 (ACE, non-competitive peptide)
[1] = from Pleurotus cornucopiae mushroom

N=C(N)NCCC[C@H](NC(=O)[C@H](CC(=O)O)NC(=O)[C@@H](N)CC(N)=O)C(=O)N1CCC[C@H]1C(=O)O [NDRP] (H-NDRP-OH)
maximal ACE inhibition of the in vitro-digested sample (pepsin and pancreatin; 10 mg mL−1 in H2O, pepsin, pH 2, 37 °C, 2 h, then pancreatin, pH 7.5, 37 °C, 4 h, enzymes deactivated in boiling water bath 10 min, freeze-dried, read-out ACE assay): 82.47 ± 1.07% | residual ACE-inhibitory activity of the digested sample relative to pure peptide (pepsin and pancreatin; after pepsin (pH 2, 2 h) and pancreatin (pH 7.5, 4 h) at 37 °C, ratio of maximal ACE inhibition, digested vs pure NDRP): 94% | stability toward in vitro simulated gastrointestinal digestion (in words) (pepsin and pancreatin; pepsin (pH 2, 2 h) then pancreatin (pH 7.5, 4 h), 37 °C, ACE assay and ESI-MS (peak of intact peptide observed)): stable towards gastrointestinal simulated digestion; also recorded: might be resistant to gastrointestinal digestion; also recorded: highly stable

DENSKF
IC50 (ACE; from fruits of T. chebula Retz.): 100 µM

DERF
IC50 (ACE, non-competitive peptide) (ACE; from bovine casein hydrolysate): 21 µg/mL

GDLGKTTTVSNWSPPKYKDTP
IC50 (ACE; from tuna frame protein hydrolysate): 11.3 µM

RLPSEFDLSAFLRA
IC50 (ACE, non-competitive peptide) (ACE; [1]): 450 µg/mL

RLSGQTIEVTSEYLFRH
IC50 (ACE, non-competitive peptide) (ACE; [1]): 1100 µg/mL

RYPSYG
IC50 (ACE, non-competitive peptide) (ACE; from bovine casein hydrolysate): 54 µg/mL
